# Reference: patent US20050209201A1, “Method and composition for suppression of inflammation” (Shiseido Co., Ltd., priority 2004, published 2005)
# What was measured:
# [1] = system: IL-1α release from keratinocytes; assay: ATP-induced IL-1α release from keratinocytes (ELISA); format: cell-based, human
# Procedure: (§1) Commercially available keratinocytes (Kurabo) were cultured in KGM-2 medium (Kurabo) according to the manufacturer's manual. The cells were seeded in a 12-well plate at 1.5×10^5 cells/well.
# (§2) The medium in the 12-well plate was discarded on the day after seeding of the cells, and 24 hours after adding 2 ml of test solution dissolved in fresh medium, the culture supernatants were collected. The IL-6, IL-8, IL-1α and TNF concentrations in the recovered supernatants were measured using a commercially available ELISA kit (R&D Systems, USA).
# ATP (10 μM-1 mM) dissolved in the culture medium was applied as a test solution to keratinocytes, and after 24 hours the culture supernatants were collected and the inflammatory cytokine IL-1α was assayed with an ELISA kit.
# [2] = system: TNFα release from keratinocytes; assay: ATP-induced TNFα release from keratinocytes (ELISA); format: cell-based, human
# Procedure: as §1, §2
# ATP (10 μM-1 mM) dissolved in the culture medium was applied as a test solution to keratinocytes, and after 24 hours the culture supernatants were recovered and the inflammatory cytokine TNFα was assayed with an ELISA kit.
# [3] = system: IL-6 release from keratinocytes; assay: ATP-induced IL-6 release from keratinocytes (ELISA); format: cell-based, human
# Procedure: as §1, §2
# ATP (10 μM-1 mM) dissolved in the culture medium was applied as test solution to keratinocytes, and after 24 hours the culture supernatants were collected and the inflammatory cytokine IL-6 was assayed with the ELISA kit.
# [4] = system: IL-8 release from keratinocytes; assay: ATP-induced IL-8 release from keratinocytes (ELISA); format: cell-based, human
# Procedure: as §1, §2
# ATP (10 μM-1 mM) dissolved in the culture medium was applied as a test solution to keratinocytes, and after 24 hours the culture supernatants were recovered and the inflammatory cytokine IL-8 was assayed with an ELISA kit.
# [5] = system: IL-8 gene expression in keratinocytes; assay: IL-8 gene expression in keratinocytes (Taqman RT-PCR); format: cell-based, human; conditions: Taqman-PCR normalized to GAPDH
# Procedure: as §1
# (§3) Keratinocytes were treated with the test solution and cells treated for 6 hours were used. Total RNA was extracted from the cells by addition of ISOGEN (Nippon Gene) according to the manufacturer's manual. cDNA was prepared with M-MLV reverse transcriptase (Life Technologies, Rockville USA), using 1 μg of RNA as template.
# (§4) The gene sequence of the obtained cDNA was determined quantitatively by Taqman-PCR using an ABI PRISM 7700 Sequence Detector (Perkin Elmer) according to the manufacturer's manual, in the manner described in paragraph 11 of Japanese Unexamined Patent Publication (Kokai) No. 11-32799. The result was normalized on the basis of the expression level of human GAPDH (glyceraldehyde-3-phosphate dehydrogenase) used as an internal standard.
# [6] = system: IL-6 gene expression in keratinocytes; assay: IL-6 gene expression in keratinocytes (Taqman RT-PCR); format: cell-based, human; conditions: Taqman-PCR normalized to GAPDH
# Procedure: as §1, §3, §4
# HR-1 mice = assay: Confirmation test for inflammation suppressing effect: acetone barrier disruption in a dry environment, HE staining of dorsal skin; format: in vivo; conditions: dry environment (<10% RH), acetone-treated dorsal skin, coating with 1 mM Reactive blue 2, skin collected after 48 hours, control water
# Procedure: After raising HR-1 mice for 48 hours in a dry environment (<10% RH), the dorsal skin was acetone-treated to disrupt its skin barrier function, and then the skin was applied with 1 mM Reactive blue 2. Control animals were applied with water. After an additional 48 hours, the dorsal skins of both animal groups were collected. The skin tissue was fixed with formaldehyde and subjected to hematoxylin-eosin (HE) staining and observed under an optical microscope.
# [7] = system: IL-6 release in ultraviolet irradiated keratinocytes; assay: Release of cytokine IL-6 in ultraviolet irradiated keratinocytes (ELISA); format: cell-based, human
# Procedure: as §1, §2
# (§5) After discarding the medium, PBS(−) was added and UVB was irradiated at 30 or 60 mJ/cm^2. Following the irradiation, the PBS(−) was discarded, 2 ml of the medium or test solution dissolved in the medium was added, and the culture supernatants were collected after 24 hours.
# Cells were exposed to ultraviolet irradiation. After 24 h, keratinocyte cell supernatants were collected and the content of IL-6 was assayed with an ELISA kit.
# [8] = system: IL-8 release in ultraviolet irradiated keratinocytes; assay: Release of cytokine IL-8 in ultraviolet irradiated keratinocytes (ELISA); format: cell-based, human
# Procedure: as §1, §2, §5
# Cells were exposed to ultraviolet irradiation. After 24 h, keratinocyte cell supernatants were collected and the content of IL-8 was assayed with an ELISA kit.
# [9] = ATP 10 μM-1 mM, 24 hours, ELISA, in proportion to concentration
# [10] = ATP 10 μM-1 mM, 24 hours, ELISA, in proportion to ATP concentration
# [11] = ATP 30-1000 μM, concentration-dependent
# [12] = keratinocytes pretreated with 100 μM Reactive blue 2, ATP added 10 minutes later, supernatant after 24 hours, ELISA
# [13] = keratinocytes pretreated with 30-100 μM Reactive blue 2, ATP added 10 minutes later, supernatant after 24 hours, ELISA
# [14] = Reactive blue 2 100 μM, cells treated 6 hours
# [15] = UVB irradiation 10 minutes after pretreatment with 100 μM Reactive blue 2, supernatant after 24 h, ELISA
# [16] = pretreatment of the cells with suramin, data not shown
smiles,measurement,setting,value
"Nc1ncnc2c1ncn2[C@@H]1O[C@H](COP(=O)(O)OP(=O)(O)OP(=O)(O)O)[C@@H](O)[C@H]1O [ATP, adenosine triphosphate]",IL-1α in culture supernatant after addition of ATP,[1]; [9],significant increase
same,TNFα in culture supernatant after addition of ATP,[2]; [9],significant increase
same,IL-6 in culture supernatant after addition of ATP,[3]; [10],significant increase
same,IL-8 in culture supernatant after addition of ATP,[4]; [10],significant increase
same,IL-8 expression over non-stimulated cells (controls),[5]; [11],significantly increased
same,IL-6 expression over non-stimulated cells (controls),[6]; [11],significantly increased
Nc1c(S(=O)(=O)O)cc(Nc2ccc(Nc3nc(Cl)nc(Nc4cccc(S(=O)(=O)O)c4)n3)c(S(=O)(=O)O)c2)c2c1C(=O)c1ccccc1C2=O [Reactive blue 2],ATP-induced increase in IL-1α,[1]; [12],significantly inhibited
same,ATP-induced increase in TNFα,[2]; [12],significantly inhibited
same,epidermal hyperplasia after barrier disruption (HE staining),HR-1 mice,inhibits the epidermal hyperplasia
same,ATP-induced increase in IL-6,[3]; [13],significantly inhibited
same,ATP-induced increase in IL-8,[4]; [13],significantly inhibited
same,ATP-induced increase in IL-8 gene expression,[5]; [14],significantly inhibited
same,ultraviolet irradiation-induced increase in IL-6,[7]; [15],significantly inhibited
same,ultraviolet irradiation-induced increase in IL-8,[8]; [15],significantly inhibited
same,ATP-induced increase in IL-6 gene expression,[6]; [14],significantly inhibited
Cc1ccc(C(=O)Nc2ccc(S(=O)(=O)O)c3cc(S(=O)(=O)O)cc(S(=O)(=O)O)c23)cc1NC(=O)c1cccc(NC(=O)Nc2cccc(C(=O)Nc3cc(C(=O)Nc4ccc(S(=O)(=O)O)c5cc(S(=O)(=O)O)cc(S(=O)(=O)O)c45)ccc3C)c2)c1 [suramin],increase in IL-1α release produced by ATP addition,[1]; [16],similarly inhibited
same,increase in TNFα release produced by ATP addition,[2]; [16],similarly inhibited
same,increase in IL-6 release produced by ATP addition,[3]; [16],similarly inhibited
same,increase in IL-8 release produced by ATP addition,[4]; [16],similarly inhibited
same,increase in IL-6 release produced by ultraviolet irradiation,[7]; [16],similarly inhibited
same,increase in IL-8 release produced by ultraviolet irradiation,[8]; [16],similarly inhibited
